For 22 molecules, IC50 results are on record in patent US8163756B2 (priority 2004, dated 2012).

Each structure is given as a SMILES string. pIC50: −log10 of the molar value.

What all share (assay type): biochemical
Experiment [1] concerns the target T1, B-Raf(V599E) kinase (Homo sapiens, UniProt P15056, V600E). The experiment is described as follows: B-Raf(V599E) kinase assay B2 (construct 2 at 2 nM, 1 h pre-incubation). On the procedure:
(§1) The test compounds were incubated with the reaction mixtureat 30° C. for 2 h. […] The reaction rate was calculated using the […] time frame. […] IC50 values were calculated from a series of percent inhibition values determined at a range of inhibitor concentrations using software routines as implemented in the GraphPad Prism software package.
Same as assay B1 except that (1) construct 2 was employed at a nominal concentration of 2 nM (2) the reaction was pre-incubated at 30° C. for 1 h prior to initiation with ATP (3) a reading time frame of 0.5 h to 1.5 h.
Target sequence in this assay (P15056 433-726 V600E): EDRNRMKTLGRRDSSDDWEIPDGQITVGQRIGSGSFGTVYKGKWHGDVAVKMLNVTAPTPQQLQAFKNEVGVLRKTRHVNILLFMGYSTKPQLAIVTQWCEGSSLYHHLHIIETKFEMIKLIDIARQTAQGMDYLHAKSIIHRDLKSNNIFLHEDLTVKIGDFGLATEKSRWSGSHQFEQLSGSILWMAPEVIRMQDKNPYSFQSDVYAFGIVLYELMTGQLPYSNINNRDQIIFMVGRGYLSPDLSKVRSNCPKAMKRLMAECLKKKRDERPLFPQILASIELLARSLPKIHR

In experiment [2] the target is phosphorylated p-38-alpha kinase (Homo sapiens, UniProt Q16539). The experiment is described as follows: P-38 alpha kinase assay P1 (coupled spectrophotometric, 2 h pre-incubation). Conditions: method P1 (2 h pre-incubation); read-out: P-38 Data.
Chain of phosphorylated p-38-alpha kinase (Q16539 1-360 isoform Q16539-2): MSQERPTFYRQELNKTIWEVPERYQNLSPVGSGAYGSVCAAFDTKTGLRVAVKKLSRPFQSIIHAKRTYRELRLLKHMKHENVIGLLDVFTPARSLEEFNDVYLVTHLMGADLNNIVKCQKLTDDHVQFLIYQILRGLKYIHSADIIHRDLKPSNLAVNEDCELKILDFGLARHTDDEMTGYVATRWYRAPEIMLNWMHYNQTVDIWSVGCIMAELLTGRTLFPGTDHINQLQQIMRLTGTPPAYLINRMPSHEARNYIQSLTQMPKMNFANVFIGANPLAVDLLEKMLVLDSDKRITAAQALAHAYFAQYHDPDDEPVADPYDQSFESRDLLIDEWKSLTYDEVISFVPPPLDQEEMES
Experiment [3] concerns the target T2, Abl kinase (Homo sapiens, UniProt P00519).
T2 sequence (P00519 229-512): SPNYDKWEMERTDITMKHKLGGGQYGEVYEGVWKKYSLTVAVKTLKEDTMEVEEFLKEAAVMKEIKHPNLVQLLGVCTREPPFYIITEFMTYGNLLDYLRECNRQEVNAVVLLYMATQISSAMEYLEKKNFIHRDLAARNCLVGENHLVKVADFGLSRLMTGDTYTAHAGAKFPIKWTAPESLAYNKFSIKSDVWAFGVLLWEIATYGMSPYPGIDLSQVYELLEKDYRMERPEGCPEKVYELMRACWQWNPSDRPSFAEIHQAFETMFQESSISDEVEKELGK
The experiment is described as follows: Abl kinase assay A1 (pyruvate kinase/lactate dehydrogenase coupled, spectrophotometric). The following applies: Method A1; read-out: Abl Data (IC50). On the procedure: (§2) IC50 values were calculated from a series of percent inhibition values determined at a range of inhibitor concentrations using software routines as implemented in the GraphPad Prism software package.

Experiment [4] has as its target T3, KDR kinase (Homo sapiens, UniProt P35968, DEL940-989/E990V). The experiment is described as follows: KDR kinase assay K2 (as K1, 2.1 nM enzyme, 2 h pre-incubation, 1.0 mM ATP). The following applies: Method K2; read-out: KDR Data (IC50). As for the experimental part:
as §2

Experiment [5] addresses T2, Abl kinase. The experiment is described as follows: Abl kinase assay A2 (as A1, 1.1 nM enzyme, 2 h pre-incubation, 0.5 mM ATP). As for the experimental part:
as §2

Experiment [6] has as its target T1, B-Raf(V599E) kinase. The experiment is described as follows: B-Raf(V599E) kinase assay B1 (construct 1, MEK1 substrate, coupled spectrophotometric). As for the experimental part:
as §1
Target sequence in this assay (P15056 with tags, fused parts or gaps V600E): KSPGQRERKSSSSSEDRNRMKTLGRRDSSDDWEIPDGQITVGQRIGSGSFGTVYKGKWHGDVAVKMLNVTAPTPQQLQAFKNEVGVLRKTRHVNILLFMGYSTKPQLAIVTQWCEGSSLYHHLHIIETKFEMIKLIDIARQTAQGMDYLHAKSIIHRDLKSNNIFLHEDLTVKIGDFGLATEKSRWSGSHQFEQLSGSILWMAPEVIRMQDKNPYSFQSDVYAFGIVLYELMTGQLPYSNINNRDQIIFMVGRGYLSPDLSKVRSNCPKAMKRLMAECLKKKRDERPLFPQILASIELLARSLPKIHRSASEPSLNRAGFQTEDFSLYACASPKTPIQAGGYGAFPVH

Experiment [7] concerns the target T3, KDR kinase. The experiment is described as follows: KDR kinase assay K1 (pyruvate kinase/lactate dehydrogenase coupled, spectrophotometric). Conditions: Method K1; read-out: KDR Data (IC50). As for the experimental part:
as §2

The mark [8] stands for this setting: Method A2, read-out: Abl Data (IC50).

T3 sequence (P35968 with tags, fused parts or gaps DEL940-989/E990V): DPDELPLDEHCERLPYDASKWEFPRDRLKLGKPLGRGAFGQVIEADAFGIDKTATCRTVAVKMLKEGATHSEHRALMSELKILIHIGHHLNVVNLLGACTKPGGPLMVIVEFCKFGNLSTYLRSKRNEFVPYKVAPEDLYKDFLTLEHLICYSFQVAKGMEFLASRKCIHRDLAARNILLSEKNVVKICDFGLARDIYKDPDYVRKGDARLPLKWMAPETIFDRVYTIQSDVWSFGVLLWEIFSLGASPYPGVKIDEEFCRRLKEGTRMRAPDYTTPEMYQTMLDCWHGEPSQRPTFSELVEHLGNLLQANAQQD

Regarding `CC(C)(C)c1cc(NC(=O)Nc2ccc(F)c(F)c2F)n(-c2cc(CC(=O)NCC(O)CO)c3ccccc3c2)n1` (centres unmarked) [Example 96, 1-(3-t-butyl-1-(4-(2-(2,3-dihydroxypropyl-amino)-2-oxoethyl)naphthalen-2-yl)-1H-pyrazol-5-yl)-3-(2,3,4-trifluorophenyl)urea], the pIC50 was 6.42 in experiment [1], 7.32 in experiment [2] and 7.00 in experiment [3].

Turning to `CC(C)(C)c1cc(NC(=O)Nc2cccc(Cl)c2Cl)n(-c2ccc3[nH]ccc3c2)n1` [Example 115, 1-(3-t-butyl-1-(1H-indol-5-yl)-1H-pyrazol-5-yl)-3-(2,3-dichlorophenyl)urea], the pIC50 is 6.09 in experiment [4], 6.01 in experiment [1], 6.31 in experiment [2] and 6.77 in experiment [3].

On to `CC(C)(C)c1cc(NC(=O)Nc2cccc(Oc3cccnc3)c2)n(-c2cccc(-c3cccnc3)c2)n1` [Example 277, 1-(3-t-butyl-1-(3-(pyridin-3-yl)phenyl)-1H-pyrazol-5-yl)-3-(3-(pyridin-3-yloxy)phenyl)urea], for which the pIC50 in experiment [5] (setting [8]) was 7.54; in experiment [4], 8.00; in experiment [6], 7.96; in experiment [2], 6.74.

In the case of `CC(C)(C)c1cc(NC(=O)Nc2ccc(Cl)cc2)n(-c2cc(CNC(=O)NS(C)(=O)=O)c3ccccc3c2)n1` [Example 74, 1-{3-t-butyl-1-[1-(methanesulfonylureidoamidomethyl)naphthalen-3-yl]-1H-pyrazol-5-yl}-3-(4-chlorophenyl-1-yl)urea], the values for the pIC50 in experiment [4], in experiment [1] and in experiment [3] were 5.60, 6.03 and 5.68, respectively.

As for `CC(C)(C)c1cc(NC(=O)Nc2cc(F)c(F)cc2F)n(-c2cccc(-c3cccnc3)c2)n1` [Example 275, 1-(3-t-butyl-1-(3-(pyridin-3-yl)phenyl)-1H-pyrazol-5-yl)-3-(2,4,5-trifluorophenyl)urea], the pIC50 in experiment [1] is 6.08.

As to `CC(C)(C)c1cc(NC(=O)Nc2ccc(-c3cccc4c3CNC4=O)cc2)n(-c2cccc(-c3cn[nH]c3)c2)n1` [Example 51, 1-(1-(3-(1H-pyrazol-4-yl)phenyl)-3-t-butyl-1H-pyrazol-5-yl)-3-(4-(1-oxoisoindolin-4-yl)phenyl)urea], the pIC50 in experiment [5] (setting [8]) was 7.28; in experiment [1], 7.54.

Regarding `CNC(=O)c1cc(Oc2cccc(NC(=O)Nc3cc(C(C)(C)C)nn3-c3ccc4[nH]c(=O)ccc4c3)c2)ccn1` [Example 157, 1-(3-t-butyl-1-(2-oxo-1,2-dihydroquinolin-6-yl)-1H-pyrazol-5-yl)-3-(3-(2-(methylcarbamoyl)pyridin-4-yloxy)phenyl)urea], the values for the pIC50 in experiment [5] (setting [8]) and in experiment [1] were 7.51 and 7.40, respectively.

In the case of `CNC(=O)c1cc(Oc2ccc(NC(=O)Nc3cc(C(C)(C)C)nn3-c3ccc4nc(NC)ccc4c3)cc2)ccn1` [Example 174, 1-(3-t-butyl-1-(2-(methylamino)quinolin-6-yl)-1H-pyrazol-5-yl)-3-(4-(2-(methylcarbamoyl)pyridin-4-yloxy)phenyl)urea], the figures for the pIC50 in experiment [5] (setting [8]) and in experiment [1] were 8.74 and 6.61, respectively.

With `Cn1c(=O)c(-c2cccc(NC(=O)Nc3cc(C4CCCC4)nn3-c3ccc4c(c3)CCC(=O)N4)c2)cc2cncnc21` [Example 134, 1-(3-cyclopentyl-1-(2-oxo-1,2,3,4-tetrahydroquinolin-6-yl)-1H-pyrazol-5-yl)-3-(3-(8-methyl-7-oxo-7,8-dihydropyrido[2,3-d]pyrimidin-6-yl)phenyl)urea], the pIC50 in experiment [5] (setting [8]) is 7.28; in experiment [1], 7.39.

In the case of `NC(=O)C1CCc2ccc(-n3nc(C4CCCC4)cc3NC(=O)Nc3cccc(Cl)c3Cl)cc21` (centres unmarked) [Example 305, 1-(1-(3-carbamoyl-2,3-dihydro-1H-inden-5-yl)-3-cyclopentyl-1H-pyrazol-5-yl)-3-(2,3-dichlorophenyl)urea], the pIC50 in experiment [1] is 6.10; in experiment [2], 7.72.

As to `CC(C)(C)c1cc(NC(=O)Nc2cccc(Cl)c2Cl)n(-c2cccc(-c3n[nH]c(=O)o3)c2)n1` [Example 278, 1-(3-t-butyl-1-(3-(5-oxo-4,5-dihydro-1,3,4-oxadiazol-2-yl)phenyl)-1H-pyrazol-5-yl)-3-(2,3-dichlorophenyl)urea], in experiment [1], the pIC50 was 6.82.

`CC(C)(C)c1cc(NC(=O)Nc2cccc(Oc3cccnc3)c2)n(-c2ccc3c(c2)CCNC3)n1` [Example 141, 1-(3-t-butyl-1-(1,2,3,4-tetrahydro-isoquinolin-6-yl)-1H-pyrazol-5-yl)-3-(3-(pyridin-3-yloxy)phenyl)urea]: the pIC50 in experiment [5] is 8.82; in experiment [4], 8.07; in experiment [6], 8.12; in experiment [2] it was 6.14.

On to `COc1cccc(-n2nc(C(C)(C)C)cc2NC(=O)Nc2ccccc2F)c1` [Example 235, 1-[3-t-butyl-1-(3-methoxy-phenyl)-1H-pyrazol-5-yl]-3-(2-fluorophenyl)urea], for which the pIC50 in experiment [4] is 5.46; in experiment [1], 5.98; in experiment [2], 6.92.

In the case of `NC(=O)Cc1cccc(-c2ccc(C(F)(F)F)cc2NC(=O)Nc2ccc(-c3cccc4c3CNC4=O)cc2)c1` [Example 33, [1,1′-biphenyl]-2′-(3-(4-(1-oxoisoindolin-4-yl)phenyl)ureido)-4′-(trifluoromethyl)-3-acetic acid amide], the pIC50 was 6.60 in experiment [5] (setting [8]), 7.85 in experiment [4] and 6.52 in experiment [2].

As to `CC(C)(C)c1cc(NC(=O)Nc2cccc(Oc3cccnc3)c2)n(-c2ccc3c(c2)CC(C(N)=O)NC3)n1` (centres unmarked) [Example 179, 1-(3-t-butyl-1-(3-carbamoyl-1,2,3,4-tetrahydroisoquinolin-6-yl)-1H-pyrazol-5-yl)-3-(3-(pyridin-3-yloxy)phenyl)urea], the pIC50 was 8.52 in experiment [5] (setting [8]), 8.19 in experiment [4], 7.77 in experiment [6] and 7.02 in experiment [2].

For `COc1cccc(-n2nc(C(C)(C)C)cc2NC(=O)Nc2cccc(F)c2F)c1` [Example 236, 1-[3-t-butyl-1-(3-methoxy-phenyl)-1H-pyrazol-5-yl]-3-(2,3-difluorophenyl)urea], the values for the pIC50 in experiment [4], in experiment [1] and in experiment [2] were 5.46, 5.69 and 6.60, respectively.

Consider `CNC(=O)c1cc(Oc2ccc(NC(=O)Nc3cc(C(C)(C)C)nn3-c3ccc4nc(N)ccc4c3)cc2)ccn1` [Example 176, 1-(1-(2-aminoquinolin-6-yl)-3-t-butyl-1H-pyrazol-5-yl)-3-(4-(2-(methylcarbamoyl)pyridin-4-yloxy)phenyl)urea], for which the pIC50 in experiment [5] (setting [8]) was 8.55; in experiment [1], 7.36.

Turning to `CNC(=O)C1NCCc2cc(-n3nc(C(C)(C)C)cc3NC(=O)Nc3cccc(Oc4cccnc4)c3)ccc21` (centres unmarked) [Example 180, 1-(3-t-butyl-1-(1-(methylcarbamoyl)-1,2,3,4-tetrahydroisoquinolin-6-yl)-1H-pyrazol-5-yl)-3-(3-(pyridin-3-yloxy)phenyl)urea], the pIC50 in experiment [5] (setting [8]) was 8.05; in experiment [4] it was 8.11; in experiment [6], 7.96; in experiment [2], 7.19.

Turning to `CC(C)(C)c1cc(NC(=O)Nc2cc(F)cc(F)c2F)n(-c2cc(CC(N)=O)c3ccccc3c2)n1` [Example 85, 1-(1-(4-(2-amino-2-oxoethyl)naphthalen-2-yl)-3-t-butyl-1H-pyrazol-5-yl)-3-(2,3,5-trifluorophenyl)urea], the results for the pIC50 in experiment [1] and in experiment [3] were 6.66 and 7.48, respectively.

`CC(C)(C)c1cc(NC(=O)Nc2cccc(Cl)c2Cl)n(-c2cccc(-c3cn[nH]c3)c2)n1` [Example 50, 1-(1-(3-(1H-pyrazol-4-yl)phenyl)-3-t-butyl-1H-pyrazol-5-yl)-3-(2,3-dichlorophenyl)urea]: the pIC50 was 6.77 in experiment [1], 7.28 in experiment [7], 7.54 in experiment [2] and 6.42 in experiment [3].

Regarding `CC(C)(C)c1cc(NC(=O)Nc2cccc(Oc3cccnc3)c2)n(-c2ccc3ncccc3c2)n1` [Example 55, 1-(3-t-butyl-1-(quinolin-6-yl)-1H-pyrazol-5-yl)-3-(3-(pyridin-3-yloxy)phenyl)urea], the pIC50 in experiment [5] (setting [8]) is 8.46; in experiment [4] it was 8.40; in experiment [6] it was 8.27; in experiment [2] it was 6.89.

Take `CNC(=O)C1Cc2cc(-n3nc(C(C)(C)C)cc3NC(=O)Nc3cccc(Oc4cccnc4)c3)ccc2CN1` (centres unmarked) [Example 190, 1-(3-t-butyl-1-(3-(methylcarbamoyl)-1,2,3,4-tetrahydroisoquinolin-6-yl)-1H-pyrazol-5-yl)-3-(3-(pyridin-3-yloxy)phenyl)urea]: the values for the pIC50 in experiment [5] (setting [8]), in experiment [4] and in experiment [2] were 8.40, 8.09 and 7.11, respectively.
